US20240383899A1, “MODIFIED CARBAPENEM ANTIBIOTICS WITH IMPROVED ACTIVITY AGAINST KPC CARBAPENEMASE-PRODUCING ENTEROBACTERALES” (priority 2023, published 2024)
≈ marks a conversion by molar mass, not a printed value. Read-outs that look alike come from different tables or passages of the source.

Columns and labels:
Experiment in all cases: In vitro activity (MIC) against Gram-negative aerobic bacteria
Type in all cases: cell-based
[1] = tested on: Acinetobacter baumannii MMX 2587; MDR
[2] = tested on: Klebsiella pneumoniae MMX 4885; KPC
[3] = tested on: Klebsiella pneumoniae MMX 4683 (CDC ART2008030); ESBL, KPC-2
[4] = tested on: Enterobacter cloacae MMX 6089
[5] = tested on: Klebsiella pneumoniae MMX 6854; ESBL
[6] = tested on: Serratia marcescens MMX 6462
[7] = tested on: Acinetobacter baumannii ATCC 19606
[8] = tested on: Citrobacter freundii MMX 6284
[9] = tested on: Proteus mirabilis MMX 6442
[10] = tested on: Acinetobacter baumannii MMX 2599

Row | Compound | MIC ([1]; read-out: MIC) [µg/mL] | MIC ([2]; read-out: MIC) [µg/mL] | MIC ([3]; read-out: MIC) [µg/mL] | MIC ([4]; MMX6089, read-out: MIC) [µg/mL] | MIC ([5]; read-out: MIC) [µg/mL] | MIC ([6]; MMX6462, read-out: MIC) [µg/mL] | MIC ([7]; ATCC19606, read-out: MIC) [µg/mL] | MIC ([8]; MMX6284, read-out: MIC) [µg/mL] | MIC ([9]; MMX6442, read-out: MIC) [µg/mL] | MIC ([10]; MMX2599, read-out: MIC) [µg/mL] | MIC [1] [µg/mL] | MIC [2] [µg/mL] | MIC [3] [µg/mL] | MIC [4] [µg/mL] | MIC [5] [µg/mL] | MIC [6] [µg/mL] | MIC [7] [µg/mL] | MIC [8] [µg/mL] | MIC [9] [µg/mL] | MIC [10] [µg/mL]
1 | Cc1ncc([N+](=O)[O-])n1CCO [MET, metronidazole] | > 32 | > 32 | > 32 | > 32 | > 32 | > 32 | > 32 | > 32 | > 32 | > 32 | – | – | – | – | – | – | – | – | – | –
2 | C[C@H](O)[C@H]1C(=O)N2C(C(=O)O)=C(S[C@@H]3CN[C@H](C(=O)N(C)C)C3)[C@H](C)[C@H]12 [JDB-1-200, (4R,5S,6S)-3-(((3S,5S)-5-(dimethylcarbamoyl)pyrrolidin-1-ium-3-yl)thio)-6-((S)-1-hydroxyethyl)-4-methyl-7-oxo-1-azabicyclo[3.2.0]hept-2-ene-2-carboxylate] | 32 (≈ 83.4 µM) | 0.5 (≈ 1.3 µM) | 1 (≈ 2.61 µM) | 0.12 (≈ 0.313 µM) | 0.5 (≈ 1.3 µM) | 0.5 (≈ 1.3 µM) | 0.5 (≈ 1.3 µM) | 1 (≈ 2.61 µM) | 1 (≈ 2.61 µM) | 0.12 (≈ 0.313 µM) | – | – | – | – | – | – | – | – | – | –
3 | CC(C)(O/N=C(\C(=O)N[C@@H]1C(=O)N2C(C(=O)[O-])=C(C[n+]3ccccc3)CS[C@H]12)c1csc(N)n1)C(=O)O [CAZ, ceftazidime] | > 32 | > 32 | > 32 | 32 (≈ 58.5 µM) | 0.5 (≈ 0.915 µM) | 0.25 (≈ 0.457 µM) | 8 (≈ 14.6 µM) | > 32 | ≤ 0.03 | 8 (≈ 14.6 µM) | – | – | – | – | – | – | – | – | – | –
4 | CN[C@H](CC(C)C)C(=O)N[C@H]1C(=O)N[C@@H](CC(N)=O)C(=O)N[C@H]2C(=O)N[C@H]3C(=O)N[C@H](C(=O)N[C@H](C(=O)O)c4cc(O)cc(O)c4-c4cc3ccc4O)[C@H](O)c3ccc(c(Cl)c3)Oc3cc2cc(c3O[C@@H]2O[C@H](CO)[C@@H](O)[C@H](O)[C@H]2O[C@H]2C[C@](C)(N)[C@H](O)[C@H](C)O2)Oc2ccc(cc2Cl)[C@H]1O [VAN, vancomycin] | > 32 | > 32 | > 32 | > 32 | > 32 | > 32 | > 32 | > 32 | > 32 | > 32 | – | – | – | – | – | – | – | – | – | –
5 | colistin | – | – | – | – | – | – | – | – | – | – | 1 | 8 | 0.12 | 0.12 | 0.25 | >32 | 0.5 | 0.12 | >32 | 2
6 | COc1c(N2C[C@@H]3CCCN[C@@H]3C2)c(F)cc2c(=O)c(C(=O)O)cn(C3CC3)c12 [MOX, moxifloxacin] | > 4 | > 4 | > 4 | 0.03 (≈ 0.0747 µM) | 0.5 (≈ 1.25 µM) | 0.12 (≈ 0.299 µM) | 0.25 (≈ 0.623 µM) | > 4 | 0.25 (≈ 0.623 µM) | 0.12 (≈ 0.299 µM) | – | – | – | – | – | – | – | – | – | –
7 | C[C@@H](O)[C@H]1C(=O)N2C(C(=O)O)=C(S[C@@H]3CN[C@H](C(=O)N(C)C)C3)[C@H](C)[C@H]12 [MEM, meropenem] | > 8 | > 8 | > 8 | 0.06 (≈ 0.156 µM) | 0.25 (≈ 0.652 µM) | 0.25 (≈ 0.652 µM) | 2 (≈ 5.22 µM) | > 8 | 0.12 (≈ 0.313 µM) | 0.25 (≈ 0.652 µM) | – | – | – | – | – | – | – | – | – | –
